Biological target: T1, human GPR119 (Homo sapiens, UniProt Q8TDV5)
T1 construct: expressed in transfected cells; host or cells: HEK293
T1 sequence (Q8TDV5 1-335): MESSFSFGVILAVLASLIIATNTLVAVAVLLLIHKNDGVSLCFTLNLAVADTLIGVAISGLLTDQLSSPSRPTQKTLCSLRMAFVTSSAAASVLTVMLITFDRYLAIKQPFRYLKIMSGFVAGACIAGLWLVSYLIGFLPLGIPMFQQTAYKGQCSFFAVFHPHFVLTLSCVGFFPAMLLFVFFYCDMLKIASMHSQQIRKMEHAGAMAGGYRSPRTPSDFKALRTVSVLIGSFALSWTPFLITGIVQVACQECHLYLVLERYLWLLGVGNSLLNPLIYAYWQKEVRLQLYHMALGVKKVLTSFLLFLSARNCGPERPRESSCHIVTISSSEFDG
Assay: Measurement of GPR119 signaling using LANCE 384-well cAMP kit (LCMP assay)
Assay type: cell-based
Conditions: HEK293 cells stably transfected with human GPR119
Experimental: Measurement of GPR119 Signaling Using LANCE 384-Well cAMP Kit (LCMP Assay)
Human embryonic kidney (HEK) 293 cell lines stably transfected with human GPR119 were maintained in DMEM media containing FBS, penicillin-streptomycin, HEPES, and hygromycin. For the cAMP assay, the transfected cells were harvested using a non-enzymatic cell dissociation solution (GIBCO 2672), pelleted and resuspended in stimulation buffer (DMEM, 25 mM Hepes, 0.1% BSA, pH 7.4 in the presence of 100 μM phosphodiesterase inhibitors). The adenylate cyclase assay was constructed following the LANCE™ cAMP Kit (Perkin Elmer, AD0264) instructions. Briefly, cells with Alexa Fluor® 647-anti cAMP antibody were incubated with 10 point series diluted test article in stimulation buffer with a final concentration of 2.5% DMSO for 45 minutes. The reaction was stopped by incubating with the supplied detection buffer containing the europium chelate of the Eu-SA/Biotin-cAMP tracer for 3 hours. The assay was performed in duplicate in a 384 well plate for duplicate plates. Fluorescence at 665 nm was measured using a PHERAstar instrument. Basal activity was determined using a DMSO control and maximum response was defined as cAMP stimulation produced by an internal agonist control. Standard cAMP concentrations were assayed concurrently for conversion of fluorescence signal to cAMP level. The data was analyzed using 4-parameter curve fit in Microsoft Excel.

EC50	SMILES
2.6 nM	CC(C)c1noc(N2CCC([C@H]3C[C@@H]3CCOc3ccc(CC(=O)N4CCC4)c(F)c3)CC2)n1 [Example 72, 1-(azetidin-1-yl)-2-(2-fluoro-4-(2-((1R,2R)-2-(1-(3-isopropyl-1,2,4-oxadiazol-5-yl)piperidin-4-yl)cyclopropyl)ethoxy)phenyl)ethanone]
6.4 nM	COCc1noc(N2CCC([C@H]3C[C@@H]3CCOc3ccc(CC(=O)N4CCC4)c(F)c3)CC2)n1 [Example 73, 1-(azetidin-1-yl)-2-(2-fluoro-4-(2-((1R,2R)-2-(1-(3-(methoxymethyl)-1,2,4-oxadiazol-5-yl)piperidin-4-yl)cyclopropyl)ethoxy)phenyl)ethanone]
9.5 nM	CC(C)c1noc(N2CCC([C@H]3C[C@@H]3CCOc3ccc(CC(=O)N4CCC4)cc3F)CC2)n1 [Example 74, 1-(azetidin-1-yl)-2-(3-fluoro-4-(2-((1R,2R)-2-(1-(3-isopropyl-1,2,4-oxadiazol-5-yl)piperidin-4-yl)cyclopropyl)ethoxy)phenyl)ethanone]
8.1 nM	CC(C)c1noc(N2CCC([C@H]3C[C@@H]3CCOc3ccc(CC(=O)N(C)C)c(F)c3)CC2)n1 [Example 75, 2-(2-fluoro-4-(2-((1R,2R)-2-(1-(3-isopropyl-1,2,4-oxadiazol-5-yl)piperidin-4-yl)cyclopropyl)ethoxy)phenyl)-N,N-dimethylacetamide]
6.3 nM	CC(C)c1noc(N2CCC([C@@H]3C[C@H]3CCOc3ccc(CC(=O)N(C)C)c(F)c3)CC2)n1 [Example 76, 2-(2-fluoro-4-(2-((1S,2S)-2-(1-(3-isopropyl-1,2,4-oxadiazol-5-yl)piperidin-4-yl)cyclopropyl)ethoxy)phenyl)-N,N-dimethylacetamide]
0.79 nM	CC(C)c1noc(N2CCC([C@@H]3C[C@H]3CCOc3cc(F)c(CC(=O)N(C)C)c(F)c3)CC2)n1 [Example 77, 2-(2,6-difluoro-4-(2-((1S,2S)-2-(1-(3-isopropyl-1,2,4-oxadiazol-5-yl)piperidin-4-yl)cyclopropyl)ethoxy)phenyl)-N,N-dimethylacetamide]
6.7 nM	COCc1noc(N2CCC([C@@H]3C[C@H]3CCOc3cc(F)c(CC(=O)N(C)C)c(F)c3)CC2)n1 [Example 78, 2-(2,6-difluoro-4-(2-((1S,2S)-2-(1-(3-(methoxymethyl)-1,2,4-oxadiazol-5-yl)piperidin-4-yl)cyclopropyl)ethoxy)phenyl)-N,N-dimethylacetamide]
0.55 nM	CC(C)c1noc(N2CCC([C@H]3C[C@@H]3CCOc3cc(F)c(CC(=O)N4CCC4)c(F)c3)CC2)n1 [Example 79, 1-(azetidin-1-yl)-2-(2,6-difluoro-4-(2-((1R,2R)-2-(1-(3-isopropyl-1,2,4-oxadiazol-5-yl)piperidin-4-yl)cyclopropyl)ethoxy)phenyl)ethanone]
2.4 nM	COCc1noc(N2CCC([C@H]3C[C@@H]3CCOc3cc(F)c(CC(=O)N4CCC4)c(F)c3)CC2)n1 [Example 80, 1-(azetidin-1-yl)-2-(2,6-difluoro-4-(2-((1R,2R)-2-(1-(3-(methoxymethyl)-1,2,4-oxadiazol-5-yl)piperidin-4-yl)cyclopropyl)ethoxy)phenyl)ethanone]
0.67 nM	CC(C)c1noc(N2CCC([C@H]3C[C@@H]3CCOc3cc(F)c(CC(=O)N(C)C)c(F)c3)CC2)n1 [Example 81, 2-(2,6-difluoro-4-(2-((1R,2R)-2-(1-(3-isopropyl-1,2,4-oxadiazol-5-yl)piperidin-4-yl)cyclopropyl)ethoxy)phenyl)-N,N-dimethylacetamide]
0.51 nM	CC(C)c1noc(N2CCC([C@@H]3C[C@H]3CCOc3cc(F)c(CC(=O)N4CCC4)c(F)c3)CC2)n1 [Example 82, 1-(azetidin-1-yl)-2-(2,6-difluoro-4-(2-((1S,2S)-2-(1-(3-isopropyl-1,2,4-oxadiazol-5-yl)piperidin-4-yl)cyclopropyl)ethoxy)phenyl)ethanone]
5.2 nM	COCc1noc(N2CCC([C@@H]3C[C@H]3CCOc3cc(F)c(CC(=O)N4CCC4)c(F)c3)CC2)n1 [Example 83, 1-(azetidin-1-yl)-2-(2,6-difluoro-4-(2-((1S,2S)-2-(1-(3-(methoxymethyl)-1,2,4-oxadiazol-5-yl)piperidin-4-yl)cyclopropyl)ethoxy)phenyl)ethanone]
3 nM	COCc1noc(N2CCC([C@H]3C[C@@H]3CCOc3cc(F)c(CC(=O)N(C)C)c(F)c3)CC2)n1 [Example 84, 2-(2,6-difluoro-4-(2-((1R,2R)-2-(1-(3-(methoxymethyl)-1,2,4-oxadiazol-5-yl)piperidin-4-yl)cyclopropyl)ethoxy)phenyl)-N,N-dimethylacetamide]
17 nM	CC(C)c1noc(N2CCC([C@H]3C[C@@H]3CCOc3ccc(S(C)(=O)=O)cc3F)CC2)n1 [Example 85, 5-(4-((1R,2R)-2-(2-(2-fluoro-4-(methylsulfonyl)phenoxy)ethyl)cyclopropyl)piperidin-1-yl)-3-isopropyl-1,2,4-oxadiazole]
13 nM	CC(C)c1noc(N2CCC([C@H]3C[C@@H]3CCOc3ccc(-n4cnnn4)c(F)c3)CC2)n1 [Example 86, 5-(4-((1R,2R)-2-(2-(3-fluoro-4-(1H-tetrazol-1-yl)phenoxy)ethyl)cyclopropyl)piperidin-1-yl)-3-isopropyl-1,2,4-oxadiazole]
11 nM	CC(C)c1noc(N2CCC([C@H]3C[C@@H]3CCOc3ccc(S(C)(=O)=O)c(F)c3)CC2)n1 [Example 87, 5-(4-((1R,2R)-2-(2-(3-fluoro-4-(methylsulfonyl)phenoxy)ethyl)cyclopropyl)piperidin-1-yl)-3-isopropyl-1,2,4-oxadiazole]
18 nM	CC(C)c1noc(N2CCC([C@@H]3C[C@H]3CCOc3ccc(N4CCNC4=O)cc3F)CC2)n1 [Example 88, 1-(3-fluoro-4-(2-((1S,2S)-2-(1-(3-isopropyl-1,2,4-oxadiazol-5-yl)piperidin-4-yl)cyclopropyl)ethoxy)phenyl)imidazolidin-2-one]
23 nM	COCc1noc(N2CCC([C@@H]3C[C@H]3CCOc3ccc(-n4cnnn4)cc3F)CC2)n1 [Example 89, 5-(4-((1S,2S)-2-(2-(2-fluoro-4-(1H-tetrazol-1-yl)phenoxy)ethyl)cyclopropyl)piperidin-1-yl)-3-(methoxymethyl)-1,2,4-oxadiazole]
20 nM	COCc1noc(N2CCC([C@H]3C[C@@H]3CCOc3ccc(-n4cnnn4)cc3F)CC2)n1 [Example 90, 5-(4-((1R,2R)-2-(2-(2-fluoro-4-(1H-tetrazol-1-yl)phenoxy)ethyl)cyclopropyl)piperidin-1-yl)-3-(methoxymethyl)-1,2,4-oxadiazole]
19 nM	COCc1noc(N2CCC([C@@H]3C[C@H]3CCOc3ccc(CC(=O)N4CCC4)c(F)c3)CC2)n1 [Example 91, 1-(azetidin-1-yl)-2-(2-fluoro-4-(2-((1S,2S)-2-(1-(3-(methoxymethyl)-1,2,4-oxadiazol-5-yl)piperidin-4-yl)cyclopropyl)ethoxy)phenyl)ethanone]
13 nM	CCS(=O)(=O)c1ccc(OCC[C@H]2C[C@@H]2C2CCN(c3nc(C(C)C)no3)CC2)c(F)c1 [Example 92, 5-(4-((1R,2R)-2-(2-(4-(ethylsulfonyl)-2-fluorophenoxy)ethyl)cyclopropyl)piperidin-1-yl)-3-isopropyl-1,2,4-oxadiazole]
18 nM	COCc1noc(N2CCC([C@H]3C[C@@H]3CCOc3ccc(CC(=O)N(C)C)c(F)c3)CC2)n1 [Example 93, 2-(2-fluoro-4-(2-((1R,2R)-2-(1-(3-(methoxymethyl)-1,2,4-oxadiazol-5-yl)piperidin-4-yl)cyclopropyl)ethoxy)phenyl)-N,N-dimethylacetamide]
23 nM	CC1(OC(=O)N2CCC([C@@H]3C[C@H]3CCOc3ccc(S(C)(=O)=O)c(F)c3)CC2)CC1 [Example 94, 1-methylcyclopropyl 4-((1S,2S)-2-(2-(3-fluoro-4-(methylsulfonyl)phenoxy)ethyl)cyclopropyl)piperidine-1-carboxylate]
2.6 nM	CC1(OC(=O)N2CCC([C@H]3C[C@@H]3CCOc3ccc(CC(=O)N4CCC4)c(F)c3)CC2)CC1 [Example 95, 1-methylcyclopropyl 4-((1R,2R)-2-(2-(4-(2-(azetidin-1-yl)-2-oxoethyl)-3-fluorophenoxy)ethyl)cyclopropyl)piperidine-1-carboxylate]
8.2 nM	CC1(OC(=O)N2CCC([C@@H]3C[C@H]3CCOc3ccc(-n4cnnn4)cc3F)CC2)CC1 [Example 96, 1-methylcyclopropyl 4-((1S,2S)-2-(2-(2-fluoro-4-(1H-tetrazol-1-yl)phenoxy)ethyl)cyclopropyl)piperidine-1-carboxylate]
4.2 nM	CC1(OC(=O)N2CCC([C@@H]3C[C@H]3CCOc3ccc(CC(=O)N4CCC4)c(F)c3)CC2)CC1 [Example 97, 1-methylcyclopropyl 4-((1S,2S)-2-(2-(4-(2-(azetidin-1-yl)-2-oxoethyl)-3-fluorophenoxy)ethyl)cyclopropyl)piperidine-1-carboxylate]

From US20150274664A1 (MERCK SHARP & DOHME CORP., priority 2012, published 2015)
